# Reference: the NIST ThermoML archive (doi:10.1016/j.tca.2016.03.002)
# ± gives the expanded uncertainty stated by the source.
# Legend:
# [1] = xn = mol fraction of the nth substance listed; settings: 100 kPa, Liquid; for viscosity: Capillary tube (Ostwald / Ubbelohde) method; for mass density: Vibrating tube method
# [2] = relative permittivity at various frequencies (dimensionless); xn = mol fraction of the nth substance listed; settings: 100 kPa, Liquid, Frequency=30 MHz, Parallel plate capacitor
smiles,measurement,setting,value
NC1CCCCC1 [cyclohexylamine] + CO,viscosity,"[1]; 293.15 K, x2 = 0",2.142 ± 0.046 mPa·s
same,viscosity,"[1]; 293.15 K, x2 = 0.0666",2.16 ± 0.05 mPa·s
same,viscosity,"[1]; 293.15 K, x2 = 0.1108",2.17 ± 0.05 mPa·s
same,viscosity,"[1]; 293.15 K, x2 = 0.2089",2.18 ± 0.05 mPa·s
same,viscosity,"[1]; 293.15 K, x2 = 0.3043",2.19 ± 0.05 mPa·s
same,viscosity,"[1]; 293.15 K, x2 = 0.4097",2.16 ± 0.05 mPa·s
same,viscosity,"[1]; 293.15 K, x2 = 0.4479",2.13 ± 0.04 mPa·s
same,viscosity,"[1]; 293.15 K, x2 = 0.493",2.07 ± 0.04 mPa·s
same,viscosity,"[1]; 293.15 K, x2 = 0.5478",1.99 ± 0.04 mPa·s
same,viscosity,"[1]; 293.15 K, x2 = 0.5961",1.89 ± 0.04 mPa·s
same,viscosity,"[1]; 293.15 K, x2 = 0.659",1.7 ± 0.04 mPa·s
same,viscosity,"[1]; 293.15 K, x2 = 0.7014",1.56 ± 0.03 mPa·s
same,viscosity,"[1]; 293.15 K, x2 = 0.798",1.22 ± 0.03 mPa·s
same,viscosity,"[1]; 293.15 K, x2 = 0.8992",0.89 ± 0.02 mPa·s
same,viscosity,"[1]; 293.15 K, x2 = 0.9503",0.72 ± 0.02 mPa·s
same,mass density,"[1]; 293.15 K, x2 = 0",866.86 ± 2.1 kg/m3
same,mass density,"[1]; 293.15 K, x2 = 0.0666",867.932 ± 2.1 kg/m3
same,mass density,"[1]; 293.15 K, x2 = 0.1108",868.284 ± 2.1 kg/m3
same,mass density,"[1]; 293.15 K, x2 = 0.2089",869.337 ± 2.1 kg/m3
same,mass density,"[1]; 293.15 K, x2 = 0.3043",869.454 ± 2.1 kg/m3
same,mass density,"[1]; 293.15 K, x2 = 0.4097",868.83 ± 2.1 kg/m3
same,mass density,"[1]; 293.15 K, x2 = 0.4479",868.248 ± 2.1 kg/m3
same,mass density,"[1]; 293.15 K, x2 = 0.493",867.202 ± 2.1 kg/m3
same,mass density,"[1]; 293.15 K, x2 = 0.5478",865.137 ± 2.1 kg/m3
same,mass density,"[1]; 293.15 K, x2 = 0.5961",862.688 ± 2.1 kg/m3
same,mass density,"[1]; 293.15 K, x2 = 0.659",858.061 ± 2.1 kg/m3
same,mass density,"[1]; 293.15 K, x2 = 0.7014",853.915 ± 2.1 kg/m3
same,mass density,"[1]; 293.15 K, x2 = 0.798",841.114 ± 2 kg/m3
same,mass density,"[1]; 293.15 K, x2 = 0.8992",820.891 ± 2 kg/m3
same,mass density,"[1]; 293.15 K, x2 = 0.9503",807.371 ± 2 kg/m3
same,viscosity,"[1]; 298.15 K, x2 = 0",1.908 ± 0.041 mPa·s
same,viscosity,"[1]; 298.15 K, x2 = 0.0666",1.92 ± 0.04 mPa·s
same,viscosity,"[1]; 298.15 K, x2 = 0.1108",1.93 ± 0.04 mPa·s
same,viscosity,"[1]; 298.15 K, x2 = 0.2089",1.94 ± 0.04 mPa·s
same,viscosity,"[1]; 298.15 K, x2 = 0.3043",1.94 ± 0.04 mPa·s
same,viscosity,"[1]; 298.15 K, x2 = 0.4097",1.91 ± 0.04 mPa·s
same,viscosity,"[1]; 298.15 K, x2 = 0.4479",1.88 ± 0.04 mPa·s
same,viscosity,"[1]; 298.15 K, x2 = 0.493",1.83 ± 0.04 mPa·s
same,viscosity,"[1]; 298.15 K, x2 = 0.5478",1.76 ± 0.04 mPa·s
same,viscosity,"[1]; 298.15 K, x2 = 0.5961",1.67 ± 0.04 mPa·s
same,viscosity,"[1]; 298.15 K, x2 = 0.659",1.52 ± 0.03 mPa·s
same,viscosity,"[1]; 298.15 K, x2 = 0.7014",1.4 ± 0.03 mPa·s
same,viscosity,"[1]; 298.15 K, x2 = 0.798",1.11 ± 0.02 mPa·s
same,viscosity,"[1]; 298.15 K, x2 = 0.8992",0.78 ± 0.02 mPa·s
same,viscosity,"[1]; 298.15 K, x2 = 0.9503",0.67 ± 0.02 mPa·s
same,mass density,"[1]; 298.15 K, x2 = 0",862.315 ± 2.1 kg/m3
same,mass density,"[1]; 298.15 K, x2 = 0.0666",863.427 ± 2.1 kg/m3
same,mass density,"[1]; 298.15 K, x2 = 0.1108",863.705 ± 2.1 kg/m3
same,mass density,"[1]; 298.15 K, x2 = 0.2089",864.848 ± 2.1 kg/m3
same,mass density,"[1]; 298.15 K, x2 = 0.3043",864.932 ± 2.1 kg/m3
same,mass density,"[1]; 298.15 K, x2 = 0.4097",864.276 ± 2.1 kg/m3
same,mass density,"[1]; 298.15 K, x2 = 0.4479",863.674 ± 2.1 kg/m3
same,mass density,"[1]; 298.15 K, x2 = 0.493",862.605 ± 2.1 kg/m3
same,mass density,"[1]; 298.15 K, x2 = 0.5478",860.518 ± 2.1 kg/m3
same,mass density,"[1]; 298.15 K, x2 = 0.5961",858.069 ± 2.1 kg/m3
same,mass density,"[1]; 298.15 K, x2 = 0.659",853.437 ± 2.1 kg/m3
same,mass density,"[1]; 298.15 K, x2 = 0.7014",849.321 ± 2.1 kg/m3
same,mass density,"[1]; 298.15 K, x2 = 0.798",836.513 ± 2 kg/m3
same,mass density,"[1]; 298.15 K, x2 = 0.8992",816.251 ± 2 kg/m3
same,mass density,"[1]; 298.15 K, x2 = 0.9503",802.691 ± 2 kg/m3
same,viscosity,"[1]; 303.15 K, x2 = 0",1.697 ± 0.036 mPa·s
same,viscosity,"[1]; 303.15 K, x2 = 0.0666",1.71 ± 0.04 mPa·s
same,viscosity,"[1]; 303.15 K, x2 = 0.1108",1.71 ± 0.04 mPa·s
same,viscosity,"[1]; 303.15 K, x2 = 0.2089",1.72 ± 0.04 mPa·s
same,viscosity,"[1]; 303.15 K, x2 = 0.3043",1.72 ± 0.04 mPa·s
same,viscosity,"[1]; 303.15 K, x2 = 0.4097",1.69 ± 0.04 mPa·s
same,viscosity,"[1]; 303.15 K, x2 = 0.4479",1.66 ± 0.04 mPa·s
same,viscosity,"[1]; 303.15 K, x2 = 0.4931",1.62 ± 0.03 mPa·s
same,viscosity,"[1]; 303.15 K, x2 = 0.5478",1.56 ± 0.03 mPa·s
same,viscosity,"[1]; 303.15 K, x2 = 0.5966",1.48 ± 0.03 mPa·s
same,viscosity,"[1]; 303.15 K, x2 = 0.659",1.35 ± 0.03 mPa·s
same,viscosity,"[1]; 303.15 K, x2 = 0.7014",1.26 ± 0.03 mPa·s
same,viscosity,"[1]; 303.15 K, x2 = 0.798",1.04 ± 0.02 mPa·s
same,viscosity,"[1]; 303.15 K, x2 = 0.8992",0.75 ± 0.02 mPa·s
same,viscosity,"[1]; 303.15 K, x2 = 0.9503",0.62 ± 0.01 mPa·s
same,mass density,"[1]; 303.15 K, x2 = 0",857.774 ± 2.1 kg/m3
same,mass density,"[1]; 303.15 K, x2 = 0.0666",858.919 ± 2.1 kg/m3
same,mass density,"[1]; 303.15 K, x2 = 0.1108",859.196 ± 2.1 kg/m3
same,mass density,"[1]; 303.15 K, x2 = 0.2089",860.385 ± 2.1 kg/m3
same,mass density,"[1]; 303.15 K, x2 = 0.3043",860.42 ± 2.1 kg/m3
same,mass density,"[1]; 303.15 K, x2 = 0.4097",859.728 ± 2.1 kg/m3
same,mass density,"[1]; 303.15 K, x2 = 0.4479",859.094 ± 2.1 kg/m3
same,mass density,"[1]; 303.15 K, x2 = 0.4931",858.005 ± 2.1 kg/m3
same,mass density,"[1]; 303.15 K, x2 = 0.5478",855.9 ± 2.1 kg/m3
same,mass density,"[1]; 303.15 K, x2 = 0.5966",853.451 ± 2.1 kg/m3
same,mass density,"[1]; 303.15 K, x2 = 0.659",848.818 ± 2 kg/m3
same,mass density,"[1]; 303.15 K, x2 = 0.7014",844.723 ± 2 kg/m3
same,mass density,"[1]; 303.15 K, x2 = 0.798",831.905 ± 2 kg/m3
same,mass density,"[1]; 303.15 K, x2 = 0.8992",811.617 ± 2 kg/m3
same,mass density,"[1]; 303.15 K, x2 = 0.9503",798.008 ± 2 kg/m3
same,relative permittivity,"[2]; 293.15 K, x2 = 0",4.65 ± 0.09
same,relative permittivity,"[2]; 293.15 K, x2 = 0.0702",5.34 ± 0.11
same,relative permittivity,"[2]; 293.15 K, x2 = 0.1177",5.88 ± 0.12
same,relative permittivity,"[2]; 293.15 K, x2 = 0.2006",7.01 ± 0.14
same,relative permittivity,"[2]; 293.15 K, x2 = 0.3049",8.78 ± 0.18
same,relative permittivity,"[2]; 293.15 K, x2 = 0.4041",10.87 ± 0.22
same,relative permittivity,"[2]; 293.15 K, x2 = 0.4986",13.26 ± 0.27
same,relative permittivity,"[2]; 293.15 K, x2 = 0.5392",14.55 ± 0.3
same,relative permittivity,"[2]; 293.15 K, x2 = 0.597",16.28 ± 0.33
same,relative permittivity,"[2]; 293.15 K, x2 = 0.6609",18.6 ± 0.38
same,relative permittivity,"[2]; 293.15 K, x2 = 0.6986",19.95 ± 0.4
same,relative permittivity,"[2]; 293.15 K, x2 = 0.746",21.72 ± 0.44
same,relative permittivity,"[2]; 293.15 K, x2 = 0.7997",23.89 ± 0.48
same,relative permittivity,"[2]; 293.15 K, x2 = 0.8572",26.33 ± 0.53
same,relative permittivity,"[2]; 293.15 K, x2 = 0.8985",28.32 ± 0.57
same,relative permittivity,"[2]; 293.15 K, x2 = 0.949",30.74 ± 0.62
same,relative permittivity,"[2]; 298.15 K, x2 = 0",4.56 ± 0.09
same,relative permittivity,"[2]; 298.15 K, x2 = 0.0702",5.23 ± 0.11
same,relative permittivity,"[2]; 298.15 K, x2 = 0.1177",5.75 ± 0.12
same,relative permittivity,"[2]; 298.15 K, x2 = 0.2006",6.84 ± 0.14
same,relative permittivity,"[2]; 298.15 K, x2 = 0.3049",8.55 ± 0.17
same,relative permittivity,"[2]; 298.15 K, x2 = 0.4041",10.58 ± 0.21
same,relative permittivity,"[2]; 298.15 K, x2 = 0.4986",12.88 ± 0.26
same,relative permittivity,"[2]; 298.15 K, x2 = 0.5392",14.1 ± 0.29
same,relative permittivity,"[2]; 298.15 K, x2 = 0.597",15.73 ± 0.32
same,relative permittivity,"[2]; 298.15 K, x2 = 0.6609",18.05 ± 0.37
same,relative permittivity,"[2]; 298.15 K, x2 = 0.6986",19.34 ± 0.39
same,relative permittivity,"[2]; 298.15 K, x2 = 0.746",21.14 ± 0.43
same,relative permittivity,"[2]; 298.15 K, x2 = 0.7997",23.16 ± 0.47
same,relative permittivity,"[2]; 298.15 K, x2 = 0.8572",25.55 ± 0.52
same,relative permittivity,"[2]; 298.15 K, x2 = 0.8985",27.5 ± 0.56
same,relative permittivity,"[2]; 298.15 K, x2 = 0.949",29.87 ± 0.6
same,relative permittivity,"[2]; 303.15 K, x2 = 0",4.47 ± 0.09
same,relative permittivity,"[2]; 303.15 K, x2 = 0.0702",5.13 ± 0.1
same,relative permittivity,"[2]; 303.15 K, x2 = 0.1177",5.63 ± 0.11
same,relative permittivity,"[2]; 303.15 K, x2 = 0.2006",6.68 ± 0.14
same,relative permittivity,"[2]; 303.15 K, x2 = 0.3049",8.32 ± 0.17
same,relative permittivity,"[2]; 303.15 K, x2 = 0.4041",10.29 ± 0.21
same,relative permittivity,"[2]; 303.15 K, x2 = 0.4986",12.47 ± 0.25
same,relative permittivity,"[2]; 303.15 K, x2 = 0.5392",13.66 ± 0.28
same,relative permittivity,"[2]; 303.15 K, x2 = 0.597",15.28 ± 0.31
same,relative permittivity,"[2]; 303.15 K, x2 = 0.6609",17.5 ± 0.35
same,relative permittivity,"[2]; 303.15 K, x2 = 0.6986",18.73 ± 0.38
same,relative permittivity,"[2]; 303.15 K, x2 = 0.746",20.47 ± 0.41
same,relative permittivity,"[2]; 303.15 K, x2 = 0.7997",22.46 ± 0.45
same,relative permittivity,"[2]; 303.15 K, x2 = 0.8535",24.61 ± 0.5
same,relative permittivity,"[2]; 303.15 K, x2 = 0.8985",26.7 ± 0.54
same,relative permittivity,"[2]; 303.15 K, x2 = 0.949",28.96 ± 0.58
